Where two headings read alike, the source gives them in different places. Some results are limits rather than exact numbers.

Drawing on patent publication US20040127492A1 (Pharmacia Corporation, priority 2002, published 2004), this text covers IC50 for 60 compounds.

This test deals with MAPKAPK2 (MK-2) (Homo sapiens, UniProt P49137). As to the kind of experiment: Determination of MK-2 IC50 (HSP-peptide phosphorylation, anion exchange resin capture assay). The format is biochemical. The method, then:
Determination of MK-2 IC50:
Recombinant MAPKAPK2 was phosphorylated at a concentration of 42-78 μM by incubation with 0.23 μM of active p38α in 50 mM HEPES, 0.1 mM EDTA, 10 mM magnesium acetate, and 0.25 mM ATP, pH 7.5 for one hour at 30° C.
The phosphorylation of HSP-peptide ([…]) by MAPKAPK2 was measured using an anion exchange resin capture assay method. The reaction was carried out in 50 mM β-glycerolphosphate, 0.04% BSA, 10 mM magnesium acetate, 2% DMSO and 0.8 mM dithiotheritol, pH 7.5 in the presence of the HSP-peptide with 0.2 μCi [γ^33P]ATP and 0.03 mM ATP. The reaction was initiated by the addition of 15 nM MAPKAPK2 and was allowed to incubate at 30° C. for 30 min. The reaction was terminated and [γ^33P]ATP was removed from solution by the addition of 150 μl of AG 1×8 ion exchange resin in 900 mM sodium formate pH 3.0. A 50 μl aliquot of head volume was removed from the quenched reaction mixture and added to a 96-well plate, 150 μl of Microscint-40 (Packard) was added and the amount of phosphorylated-peptide was determined. Allow the Microscint to sit in the plates for 60 minutes prior to counting.
Compounds are evaluated as potential inhibitors of the MK-2 kinase by measuring their effects on MK-2 phosphorylation of the peptide substrate. Compounds may be screened initially at two concentrations prior to determination of IC50 values. Screening results are expressed as percent inhibition at the concentrations of compound tested. For IC50 value determinations, Compounds are tested at six concentrations in ten-fold serial dilutions with each concentration tested in triplicate. Results are expressed as IC50 values in micromolar. The assay is performed at a final concentration of 2% DMSO.

The mark [1] stands for this setting: Table 4, pyrimidylpyrazole MK-2 inhibitors, read-out: MK-2 Avg. IC50.
[2] abbreviates: Table 1, phenoxypyrazole MK-2 inhibitors, read-out: MK-2 Avg, IC50.
The mark [3] stands for this setting: Table 2, pyrazolylpyrazole MK-2 inhibitors, read-out: MK-2 Avg. IC50.

MAPKAPK2 (MK-2), sequence (P49137 whole entry, species assumed): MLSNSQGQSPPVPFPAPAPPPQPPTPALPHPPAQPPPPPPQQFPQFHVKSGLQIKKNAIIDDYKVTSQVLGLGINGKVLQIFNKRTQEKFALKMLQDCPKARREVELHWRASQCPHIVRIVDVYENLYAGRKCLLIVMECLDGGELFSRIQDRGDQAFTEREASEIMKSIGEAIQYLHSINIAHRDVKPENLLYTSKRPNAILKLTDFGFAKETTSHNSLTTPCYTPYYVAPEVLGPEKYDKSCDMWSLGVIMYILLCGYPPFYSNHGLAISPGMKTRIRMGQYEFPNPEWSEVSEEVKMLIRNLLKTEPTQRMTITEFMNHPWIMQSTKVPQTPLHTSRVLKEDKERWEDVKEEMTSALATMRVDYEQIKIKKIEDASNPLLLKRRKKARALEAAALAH

Regarding `O=C1NCCCn2nc3c(c21)CCc1cnc(-c2ccc4c(c2)OCO4)nc1-3` [Example 7], under setting [1], the IC50 (usually the point on the concentration scale where inhibition reaches its midpoint) amounted to 3.14 µM. As for `NCC1Cn2nc3c(c2C(=O)O1)CCc1cnccc1-3` (stereo not drawn) [Example 185], the IC50 (read-out: MK-2 Avg. IC50) was found to be 19.4 µM. The same measure, in the same setting: the value for `O=C1NCCn2nc3c(c21)CCc1cnc(Cc2ccc(Cl)cc2)cc1-3` [Example 243] was 94.2 µM; that for `O=C1NC(CNCc2ccc(Cl)cc2)Cn2nc3c(c21)CCc1cnccc1-3` (stereo not drawn) [Example 193] was 27.3 µM. Turning to `N#CC1CCn2nc3c(c2C(=O)N1)CCc1cnccc1-3` (stereo not drawn) [Example 199], the IC50 (read-out: MK-2 Avg. IC50) came out at 33.3 µM. Regarding `O=C1NCCn2nc3c(c21)CCc1c-3ccnc1Nc1ccccc1` [Example 215], the IC50 (read-out: MK-2 Avg. IC50) was found to be 53.8 µM. In the case of `O=C(O)c1[nH]nc2c1CCc1cnccc1-2` [Example 224], the IC50 (read-out: MK-2 Avg. IC50) was 63.4 µM. In the case of `O=C1NCCCn2nc3c(c21)CCc1cnc(-c2ccc(OCc4ccccc4)cc2)cc1-3` [Example 242], the IC50 (read-out: MK-2 Avg. IC50) was 93.4 µM. Turning to `CC(C)(C)OC(=O)NCCCn1nc2c(c1C(=O)O)CCc1cnc(Cl)cc1-2` [Example 254], the IC50 (read-out: MK-2 Avg. IC50) was found to be 112 µM. In the case of `Nc1cccc(-c2cc3c(cc2O)CCc2c-3nn3c2C(=O)NCCC3)c1` [Example 51], the IC50 under setting [2] was found to be 105 µM. Consider `O=C1NCCn2nc3c(c21)CCc1cnc(CCc2ccc(Cl)cc2)cc1-3` [Example 223], for which the IC50 (read-out: MK-2 Avg. IC50) was determined as 63.2 µM. In the case of `COc1cc2c(cc1Cc1ccccc1)-c1nn(CCCNC(=O)OC(C)(C)C)c(C(=O)O)c1CC2` [Example 63], the IC50 under setting [2] was found to be 154 µM. Consider `C=CCn1nc2c(c1C(=O)O)CCc1c[n+]([O-])ccc1-2` [Example 230], for which the IC50 (read-out: MK-2 Avg. IC50) came out at 75.4 µM. Still for that read-out and setting: the value for `O=C(O)c1c2c(nn1CCCNCc1cnc[nH]1)-c1ccncc1CC2` [Example 160] was 10.1 µM; that for `C#Cc1cnc2c(c1)-c1nn(CCN)c(C(=O)OCC)c1CC2` [Example 222] was 62.5 µM. Consider `COC(=O)c1c2c(nn1CCCN)-c1nc(-c3ccncc3)ncc1CC2` [Example 12], for which, under setting [1], the IC50 was 142 µM. On to `O=C(CCc1ccco1)NCCCn1nc2c(c1C(=O)O)CCc1cnccc1-2` [Example 256], for which, for the setting “read-out: MK-2 Avg. IC50”, the IC50 amounted to 116 µM. With `CC(=O)Nc1ccc(S(=O)(=O)NCCCn2nc3c(c2C(=O)O)CCc2cnccc2-3)cc1` [Example 276], the IC50 (read-out: MK-2 Avg. IC50) was 176 µM.

Regarding `CCCn1nc2c(c1C(=O)O)CCc1cnc(-c3cnc4ccccc4c3)cc1-2` [Example 20], for the setting “read-out: MK-2 Avg. IC50”, the IC50 came out at 0.0914 µM. Turning to `CC(C)NCCn1nc2c(c1C(=O)O)CCc1cnccc1-2` [Example 182], for the setting “read-out: MK-2 Avg. IC50”, the IC50 is 17.7 µM.

`NC(=O)CCCn1nc2c(c1C(=O)O)CCc1cnccc1-2` [Example 211]: the IC50 (read-out: MK-2 Avg. IC50) turned out to be 50.1 µM. For the compound `O=C(O)c1c2c(nn1CC(O)CN1CCNCC1)-c1ccncc1CC2` (stereo not drawn) [Example 283], the IC50 (read-out: MK-2 Avg. IC50) was 198 µM. `O=C(O)c1c2c(nn1CC(O)CNCc1cccs1)-c1ccncc1CC2` (stereo not drawn) [Example 206]: the IC50 (read-out: MK-2 Avg. IC50) was 36.8 µM.

On to `CCOC(=O)c1[nH]nc2c1CCc1[nH]nc([S+](C)[O-])c1-2` (stereo not drawn) [Example 63], for which the IC50 under setting [3] was at least 200 µM. With `COc1cc2c(cc1-c1cccc(Cl)c1)-c1nn(CCCNC(=O)OC(C)(C)C)c(C(=O)O)c1CC2` [Example 50], the IC50 under setting [2] was 104 µM. In the case of `CS(=O)(=O)NCCCn1nc2c(c1C(=O)O)CCc1cnccc1-2` [Example 196], the IC50 (read-out: MK-2 Avg. IC50) worked out at 28.2 µM. Regarding `O=C1NCCCn2nc3c(c21)CCc1cnc(-c2cnc4ccccc4c2)nc1-3` [Example 4], the IC50 under setting [1] stood at 1.47 µM. As to `NCCCn1nc2c(c1C(=O)O)CCc1cc(O)c(Cc3ccccc3)cc1-2` [Example 29], the IC50 under setting [2] came to 29.6 µM. With `CC(C)NCCCn1nc2c(c1C(=O)O)CCc1cnccc1-2` [Example 190], the IC50 (read-out: MK-2 Avg. IC50) came out at 21.9 µM. As to `CCOC(=O)c1c2c(nn1CCN)-c1cc(Cl)ncc1CC2` [Example 204], the IC50 (read-out: MK-2 Avg. IC50) was 36 µM. The same measure, in the same setting: the value for `O=C(O)c1c2c(nn1CC(O)CN1CCOCC1)-c1ccncc1CC2` (stereo not drawn) [Example 260] was 128 µM; that for `O=C1NCCn2nc3c(c21)CCc1cnc(N2CCOCC2)cc1-3` [Example 168] was 11.9 µM; that for `N#CCCCn1nc2c(c1C(=O)O)CCc1cnccc1-2` [Example 183] was 17.9 µM. For `ON=C1CCCn2nc3c(c21)CCc1cnccc1-3` [Example 263], the IC50 (MK-2 Avg. IC50) was determined as 131 µM. Consider `NCCCn1nc2c(c1C(=O)O)CCc1c-2ccnc1-c1ccccc1` [Example 239], for which the IC50 (read-out: MK-2 Avg. IC50) turned out to be 87.6 µM. As to `CCCCOc1ccc(S(=O)(=O)NCCCn2nc3c(c2C(=O)O)CCc2cnccc2-3)cc1` [Example 255], the half-inhibitory concentration (IC50) (read-out: MK-2 Avg. IC50) was 113 µM. As to `NC(=O)Cn1nc(C(N)=O)c2c1-c1cn[nH]c1CC2` [Example 57], the IC50 under setting [3] is at least 200 µM. As for `CNC(=O)c1[nH]nc2c1CCc1cnccc1-2` [Example 265], the half-inhibitory concentration (IC50) (read-out: MK-2 Avg. IC50) came out at 135 µM. Take `CCCCNC(=O)NCCCn1nc2c(c1C(=O)O)CCc1cnccc1-2` [Example 213]: where the note is “read-out: MK-2 Avg. IC50”, the IC50 stood at 53.5 µM. Take `C[S+]([O-])c1n[nH]c2c1-c1n[nH]c(C(=O)O)c1CC2` (stereo not drawn) [Example 62]: the IC50 under setting [3] was at least 200 µM. As to `CCCCCCc1cc2c(cn1)CCc1c-2nn2c1C(=O)NCC2` [Example 264], the IC50 (read-out: MK-2 Avg. IC50) is 133 µM. Consider `CCOC(=O)NC(=O)NCCCn1nc2c(c1C(=O)O)CCc1cnccc1-2` [Example 209], for which the IC50 (read-out: MK-2 Avg. IC50) came out at 42.5 µM. In the case of `O=C1NCCn2nc3c(c21)CCc1cnc(/C=C/c2ccc(O)cc2)cc1-3` [Example 3], the IC50 (Table 5, other cyclic pyrazole MK-2 inhibiting compounds, read-out: MK-2 Avg. IC50) came to 0.164 µM. Turning to `COC(=O)c1[nH]nc2c1CCc1cc(O)c(S(=O)(=O)N(C)C)cc1-2` [Example 47], under setting [2], the IC50 is 92.8 µM. With `CC(C)S(=O)(=O)NCCCn1nc2c(c1C(=O)O)CCc1cnccc1-2` [Example 200], where the note is “read-out: MK-2 Avg. IC50”, the IC50 was 33.3 µM. The same measure, in the same setting: in the case of `O=C(CO)NCCn1nc2c(c1C(=O)O)CCc1cnccc1-2` [Example 181] it was 17.4 µM; in that of `NC(=O)NCCCn1nc2c(c1C(=O)O)CCc1cnccc1-2` [Example 192], 25.3 µM; in that of `O=C(NCCCn1nc2c(c1C(=O)O)CCc1cnccc1-2)c1ccncc1` [Example 253], 109 µM. Turning to `O=C(NCCCn1nc2c(c1C(=O)O)CCc1cnccc1-2)c1ccco1` [Example 279], for the setting “read-out: MK-2 Avg. IC50”, the IC50 came to 190 µM. For `NCCCC1CNC(=O)c2c3c(nn21)-c1ccncc1CC3` (stereo not drawn) [Example 166], the IC50 (read-out: MK-2 Avg. IC50) amounted to 11 µM. On to `c1ccc2ncc(-c3cc4c(cn3)CCc3c[nH]nc3-4)cc2c1` [Example 212], for which the IC50 (read-out: MK-2 Avg. IC50) turned out to be 52 µM. Same read-out and setting: in the case of `CSc1[nH]nc2c1CCc1cnccc1-2` [Example 237] it was 85.2 µM. As to `Cn1cnc(S(=O)(=O)NCCCn2nc3c(c2C(=O)O)CCc2cnccc2-3)c1` [Example 274], for the setting “read-out: MK-2 Avg. IC50”, the IC50 turned out to be 164 µM. `CC(C)Cc1cc2c(cc1O)CCc1c-2nn(CCCN)c1C(=O)O` [Example 25]: under setting [2], the IC50 is 20.8 µM.

Regarding `O=C1NCCCn2nc3c(c21)CCc1cc(O)ccc1-3` [Example 18], the IC50 under setting [2] turned out to be 17 µM. Take `CCC(C)Nc1cc2c(cc1OC)CCc1c-2nn(CCCN)c1C(=O)O` (stereo not drawn) [Example 74]: the IC50 under setting [2] turned out to be 196 µM.

`O=C(NCCCn1nc2c(c1C(=O)O)CCc1cnccc1-2)c1ccccc1` [Example 227]: the IC50 (read-out: MK-2 Avg. IC50) came out at 68 µM. As to `CN(C)CC(O)Cn1nc2c(c1C(=O)N(C)C)CCc1cnccc1-2` (stereo not drawn) [Example 228], for the setting “read-out: MK-2 Avg. IC50”, the IC50 worked out at 69.3 µM.

Consider `Cc1ccc(C(C)CCN(CCCn2nc3c(c2C(=O)O)CCc2cnccc2-3)CCC(C)c2ccc(C)o2)o1` (stereo not drawn) [Example 241], for which the IC50 (read-out: MK-2 Avg. IC50) is 87.9 µM. As to `O=C1NCCn2nc3c(c21)CCc1cnc(-c2ccc(OCc4ccccc4)cc2)cc1-3` [Example 205], the IC50 (read-out: MK-2 Avg. IC50) was found to be 36.4 µM.
